Where two headings read alike, the source gives them in different places. Where no end group is shown, it is not given here.
Experiments:
Format in all cases: cell-based
NMUR2 F305A = molecular target: T1, NMUR2 F305A (Homo sapiens, UniProt Q9GZQ4, F305A); assay: IP-One assay, NMUR2 F305A; settings: mean ± S.E.M., three independent experiments (n=3), SEM, read-out: IP1 accumulation pEC50 ± S.E.M. (converted)
T1 construct: expressed in transfected cells; host or cells: AD293 cells
Protocol: (§1) IP-One production was measured using the IP-One HTRF kit (Cisbio)[62]. Briefly, AD293 cells (Agilent) were grown to a density of 400,000–500,000 cells per mL and then infected with separate plasmids at a suitable concentration. The culture was collected by centrifugation 24 h after incubation at 37 °C in 5% CO2 with a Stimulation Buffer. The cell suspension was then dispensed in a white 384-well plate at a volume of 7 μl per well before adding 7 μl of ligands. The mixture was incubated for 1 h at 37 °C. IP-One-d2 and anti-IP-One Cryptate dissolved in Lysis Buffer (3 μl each) were subsequently added and incubated for 15-30 min at room temperature before measurement. Intracellular IP-One measurement was carried with the IP-One HTRF kit and EnVision multi-plate reader (PerkinElmer) according to the manufacturer’s instructions. Data were normalized to the baseline response of the ligand.
(§2) The significance was determined with two-side, one-way ANOVA with Tukey’s test, and ^*P < 0.05 was considered statistically significant.

NMUR1 D316A = molecular target: T2, NMUR1 D316A (Homo sapiens, UniProt Q9HB89, D316A); assay: IP-One assay, NMUR1 D316A; settings: mean ± S.E.M., three independent experiments (n=3), SEM, read-out: IP1 accumulation pEC50 ± S.E.M. (converted)
T2 construct: The full-length human NMUR1 and NMUR2 were modified; expressed in transfected cells; host or cells: AD293 cells
T2 sequence (Q9HB89 whole entry D316A): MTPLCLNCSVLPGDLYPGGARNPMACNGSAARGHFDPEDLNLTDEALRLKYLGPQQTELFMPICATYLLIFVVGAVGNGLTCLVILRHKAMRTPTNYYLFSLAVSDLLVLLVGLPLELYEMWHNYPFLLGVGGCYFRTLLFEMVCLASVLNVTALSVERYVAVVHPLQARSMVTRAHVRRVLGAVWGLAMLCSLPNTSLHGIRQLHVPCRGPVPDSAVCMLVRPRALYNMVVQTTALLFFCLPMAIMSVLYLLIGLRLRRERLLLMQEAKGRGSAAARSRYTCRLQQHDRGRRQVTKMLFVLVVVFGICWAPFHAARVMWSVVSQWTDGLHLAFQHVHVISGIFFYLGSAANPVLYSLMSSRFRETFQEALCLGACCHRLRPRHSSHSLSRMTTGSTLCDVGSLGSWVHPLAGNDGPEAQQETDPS
Protocol: as §1, §2

NMUR1 Y346A = molecular target: T3, NMUR1 Y346A (Homo sapiens, UniProt Q9HB89, Y346A); assay: IP-One assay, NMUR1 Y346A; settings: mean ± S.E.M., three independent experiments (n=3), SEM, read-out: IP1 accumulation pEC50 ± S.E.M. (converted)
T3 construct: The full-length human NMUR1 and NMUR2 were modified; expressed in transfected cells; host or cells: AD293 cells
T3 sequence (Q9HB89 whole entry Y346A): as the sequence (Q9HB89 whole entry D316A) above, with A316D, Y346A counted along it
Protocol: as §1, §2

NMUR2 R288A = molecular target: T4, NMUR2 R288A (Homo sapiens, UniProt Q9GZQ4, R288A); assay: IP-One assay, NMUR2 R288A; settings: mean ± S.E.M., three independent experiments (n=3), SEM, read-out: IP1 accumulation pEC50 ± S.E.M. (converted)
T4 construct: expressed in transfected cells; host or cells: AD293 cells
T4 sequence (Q9GZQ4 whole entry R288A): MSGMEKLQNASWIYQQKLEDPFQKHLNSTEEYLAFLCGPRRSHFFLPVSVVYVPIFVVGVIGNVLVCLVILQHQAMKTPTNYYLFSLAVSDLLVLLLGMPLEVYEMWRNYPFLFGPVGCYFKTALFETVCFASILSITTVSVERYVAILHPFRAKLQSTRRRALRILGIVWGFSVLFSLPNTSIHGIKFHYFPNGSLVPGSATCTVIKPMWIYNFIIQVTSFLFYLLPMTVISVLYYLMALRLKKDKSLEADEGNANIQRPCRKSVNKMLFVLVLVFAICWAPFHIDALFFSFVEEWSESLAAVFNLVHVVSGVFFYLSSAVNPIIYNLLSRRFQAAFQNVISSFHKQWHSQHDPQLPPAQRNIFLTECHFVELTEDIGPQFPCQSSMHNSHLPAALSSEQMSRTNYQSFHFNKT
Protocol: as §1, §2

NMUR1 Y125A = molecular target: T5, NMUR1 Y125A (Homo sapiens, UniProt Q9HB89, Y125A); assay: IP-One assay, NMUR1 Y125A; settings: mean ± S.E.M., three independent experiments (n=3), SEM, read-out: IP1 accumulation pEC50 ± S.E.M. (converted)
T5 construct: The full-length human NMUR1 and NMUR2 were modified; expressed in transfected cells; host or cells: AD293 cells
T5 sequence (Q9HB89 whole entry Y125A): as the sequence (Q9HB89 whole entry D316A) above, with Y125A, A316D counted along it
Protocol: as §1, §2

NMUR2 Y317A = molecular target: T6, NMUR2 Y317A (Homo sapiens, UniProt Q9GZQ4, Y317A); assay: IP-One assay, NMUR2 Y317A; settings: mean ± S.E.M., three independent experiments (n=3), SEM, read-out: IP1 accumulation pEC50 ± S.E.M. (converted)
T6 construct: expressed in transfected cells; host or cells: AD293 cells (Agilent)
T6 sequence (Q9GZQ4 whole entry Y317A): as the sequence (Q9GZQ4 whole entry R288A) above, with A288R, Y317A counted along it
Protocol: as §1, §2

NMUR1 F334A = molecular target: T7, NMUR1 F334A (Homo sapiens, UniProt Q9HB89, F334A); assay: IP-One assay, NMUR1 F334A; settings: mean ± S.E.M., three independent experiments (n=3), SEM, read-out: IP1 accumulation pEC50 ± S.E.M. (converted)
T7 construct: The full-length human NMUR1 and NMUR2 were modified; expressed in transfected cells; host or cells: AD293 cells
T7 sequence (Q9HB89 whole entry F334A): as the sequence (Q9HB89 whole entry D316A) above, with A316D, F334A counted along it
Protocol: as §1, §2

NMUR2 N181A = molecular target: T8, NMUR2 N181A (Homo sapiens, UniProt Q9GZQ4, N181A); assay: IP-One assay, NMUR2 N181A; settings: mean ± S.E.M., three independent experiments (n=3), SEM, read-out: IP1 accumulation pEC50 ± S.E.M. (converted)
T8 construct: expressed in transfected cells; host or cells: AD293 cells
T8 sequence (Q9GZQ4 whole entry N181A): as the sequence (Q9GZQ4 whole entry R288A) above, with N181A, A288R counted along it
Protocol: as §1, §2

NMUR1 WT = molecular target: T9, NMUR1 WT (Homo sapiens, UniProt Q9HB89); assay: IP-One assay, NMUR1 WT
T9 construct: The full-length human NMUR1 and NMUR2 were modified; expressed in transfected cells; host or cells: AD293 cells
T9 sequence (Q9HB89 whole entry): as the sequence (Q9HB89 whole entry D316A) above, with A316D counted along it
Protocol: as §1, §2

NMUR2 K122A = molecular target: T10, NMUR2 K122A (Homo sapiens, UniProt Q9GZQ4, K122A); assay: IP-One assay, NMUR2 K122A; settings: mean ± S.E.M., three independent experiments (n=3), SEM, read-out: IP1 accumulation pEC50 ± S.E.M. (converted)
T10 construct: expressed in transfected cells; host or cells: AD293 cells
T10 sequence (Q9GZQ4 whole entry K122A): as the sequence (Q9GZQ4 whole entry R288A) above, with K122A, A288R counted along it
Protocol: as §1, §2

NMUR2 W297A = molecular target: T11, NMUR2 W297A (Homo sapiens, UniProt Q9GZQ4, W297A); assay: IP-One assay, NMUR2 W297A; settings: mean ± S.E.M., three independent experiments (n=3), SEM, read-out: IP1 accumulation pEC50 ± S.E.M. (converted)
T11 construct: expressed in transfected cells; host or cells: AD293 cells
T11 sequence (Q9GZQ4 whole entry W297A): as the sequence (Q9GZQ4 whole entry R288A) above, with A288R, W297A counted along it
Protocol: as §1, §2

NMUR1 H331A = molecular target: T12, NMUR1 H331A (Homo sapiens, UniProt Q9HB89, H331A); assay: IP-One assay, NMUR1 H331A; settings: mean ± S.E.M., three independent experiments (n=3), SEM, read-out: IP1 accumulation pEC50 ± S.E.M. (converted)
T12 construct: The full-length human NMUR1 and NMUR2 were modified; expressed in transfected cells; host or cells: AD293 cells
T12 sequence (Q9HB89 whole entry H331A): as the sequence (Q9HB89 whole entry D316A) above, with A316D, H331A counted along it
Protocol: as §1, §2

NMUR1 F345A = molecular target: T13, NMUR1 F345A (Homo sapiens, UniProt Q9HB89, F345A); assay: IP-One assay, NMUR1 F345A; settings: mean ± S.E.M., three independent experiments (n=3), SEM, read-out: IP1 accumulation pEC50 ± S.E.M. (converted)
T13 construct: The full-length human NMUR1 and NMUR2 were modified; expressed in transfected cells; host or cells: AD293 cells
T13 sequence (Q9HB89 whole entry F345A): as the sequence (Q9HB89 whole entry D316A) above, with A316D, F345A counted along it
Protocol: as §1, §2

NMUR2 E105A = molecular target: T14, NMUR2 E105A (Homo sapiens, UniProt Q9GZQ4, E105A); assay: IP-One assay, NMUR2 E105A; settings: mean ± S.E.M., three independent experiments (n=3), SEM, read-out: IP1 accumulation pEC50 ± S.E.M. (converted)
T14 construct: expressed in transfected cells; host or cells: AD293 cells
T14 sequence (Q9GZQ4 whole entry E105A): as the sequence (Q9GZQ4 whole entry R288A) above, with E105A, A288R counted along it
Protocol: as §1, §2

NMUR1 F313A = molecular target: T15, NMUR1 F313A (Homo sapiens, UniProt Q9HB89, F313A); assay: IP-One assay, NMUR1 F313A; settings: mean ± S.E.M., three independent experiments (n=3), SEM, read-out: IP1 accumulation pEC50 ± S.E.M. (converted)
T15 construct: The full-length human NMUR1 and NMUR2 were modified; expressed in transfected cells; host or cells: AD293 cells
T15 sequence (Q9HB89 whole entry F313A): as the sequence (Q9HB89 whole entry D316A) above, with F313A, A316D counted along it
Protocol: as §1, §2

NMUR2 F284A = molecular target: T16, NMUR2 F284A (Homo sapiens, UniProt Q9GZQ4, F284A); assay: IP-One assay, NMUR2 F284A; settings: mean ± S.E.M., three independent experiments (n=3), SEM, read-out: IP1 accumulation pEC50 ± S.E.M. (converted)
T16 construct: expressed in transfected cells; host or cells: AD293 cells
T16 sequence (Q9GZQ4 whole entry F284A): as the sequence (Q9GZQ4 whole entry R288A) above, with F284A, A288R counted along it
Protocol: as §1, §2

NMUR2 D287A = molecular target: T17, NMUR2 D287A (Homo sapiens, UniProt Q9GZQ4, D287A); assay: IP-One assay, NMUR2 D287A; settings: mean ± S.E.M., three independent experiments (n=3), SEM, read-out: IP1 accumulation pEC50 ± S.E.M. (converted)
T17 construct: expressed in transfected cells; host or cells: AD293 cells
T17 sequence (Q9GZQ4 whole entry D287A): as the sequence (Q9GZQ4 whole entry R288A) above, with D287A, A288R counted along it
Protocol: as §1, §2

NMUR2 N306A = molecular target: T18, NMUR2 N306A (Homo sapiens, UniProt Q9GZQ4, N306A); assay: IP-One assay, NMUR2 N306A; settings: mean ± S.E.M., three independent experiments (n=3), SEM, read-out: IP1 accumulation pEC50 ± S.E.M. (converted)
T18 construct: expressed in transfected cells; host or cells: AD293 cells
T18 sequence (Q9GZQ4 whole entry N306A): as the sequence (Q9GZQ4 whole entry R288A) above, with A288R, N306A counted along it
Protocol: as §1, §2

NMUR2 Y52A = molecular target: T19, NMUR2 Y52A (Homo sapiens, UniProt Q9GZQ4, Y52A); assay: IP-One assay, NMUR2 Y52A; settings: mean ± S.E.M., three independent experiments (n=3), SEM, read-out: IP1 accumulation pEC50 ± S.E.M. (converted)
T19 construct: expressed in transfected cells; host or cells: AD293 cells
T19 sequence (Q9GZQ4 whole entry Y52A): as the sequence (Q9GZQ4 whole entry R288A) above, with Y52A, A288R counted along it
Protocol: as §1, §2

NMUR1 F141A = molecular target: T20, NMUR1 F141A (Homo sapiens, UniProt Q9HB89, F141A); assay: IP-One assay, NMUR1 F141A; settings: mean ± S.E.M., three independent experiments (n=3), SEM, read-out: IP1 accumulation pEC50 ± S.E.M. (converted)
T20 construct: The full-length human NMUR1 and NMUR2 were modified; expressed in transfected cells; host or cells: AD293 cells
T20 sequence (Q9HB89 whole entry F141A): as the sequence (Q9HB89 whole entry D316A) above, with F141A, A316D counted along it
Protocol: as §1, §2

NMUR1 E142A = molecular target: T21, NMUR1 E142A (Homo sapiens, UniProt Q9HB89, E142A); assay: IP-One assay, NMUR1 E142A; settings: mean ± S.E.M., three independent experiments (n=3), SEM, read-out: IP1 accumulation pEC50 ± S.E.M. (converted)
T21 construct: The full-length human NMUR1 and NMUR2 were modified; expressed in transfected cells; host or cells: AD293 cells
T21 sequence (Q9HB89 whole entry E142A): as the sequence (Q9HB89 whole entry D316A) above, with E142A, A316D counted along it
Protocol: as §1, §2

NMUR1 E117A = molecular target: T22, NMUR1 E117A (Homo sapiens, UniProt Q9HB89, E117A); assay: IP-One assay, NMUR1 E117A; settings: mean ± S.E.M., three independent experiments (n=3), SEM, read-out: IP1 accumulation pEC50 ± S.E.M. (converted)
T22 construct: The full-length human NMUR1 and NMUR2 were modified; expressed in transfected cells; host or cells: AD293 cells
T22 sequence (Q9HB89 whole entry E117A): as the sequence (Q9HB89 whole entry D316A) above, with E117A, A316D counted along it
Protocol: as §1, §2

NMUR1 L59A = molecular target: T23, NMUR1 L59A (Homo sapiens, UniProt Q9HB89, L59A); assay: IP-One assay, NMUR1 L59A; settings: mean ± S.E.M., three independent experiments (n=3), SEM, read-out: IP1 accumulation pEC50 ± S.E.M. (converted)
T23 construct: The full-length human NMUR1 and NMUR2 were modified; expressed in transfected cells; host or cells: AD293 cells
T23 sequence (Q9HB89 whole entry L59A): as the sequence (Q9HB89 whole entry D316A) above, with L59A, A316D counted along it
Protocol: as §1, §2

NMUR2 F126A = molecular target: T24, NMUR2 F126A (Homo sapiens, UniProt Q9GZQ4, F126A); assay: IP-One assay, NMUR2 F126A; settings: mean ± S.E.M., three independent experiments (n=3), SEM, read-out: IP1 accumulation pEC50 ± S.E.M. (converted)
T24 construct: expressed in transfected cells; host or cells: AD293 cells
T24 sequence (Q9GZQ4 whole entry F126A): as the sequence (Q9GZQ4 whole entry R288A) above, with F126A, A288R counted along it
Protocol: as §1, §2

T1 sequence (Q9GZQ4 whole entry F305A): as the sequence (Q9GZQ4 whole entry R288A) above, with A288R, F305A counted along it

- EC50 (NMUR2 F305A): 12.3 nM
- EC50 (NMUR1 D316A): 10.5 nM
- EC50 (NMUR1 Y346A): 155 nM
- EC50 (NMUR2 R288A): 33.1 nM
- EC50 (NMUR1 Y125A): 20 nM
- EC50 (NMUR2 Y317A): 2.63 nM
- EC50 (NMUR1 F334A): 85.1 nM
- EC50 (NMUR2 N181A): 2.75 nM
- EC50 (NMUR1 WT; NMUR1 WT, mean ± S.E.M., three independent experiments (n=3), SEM, read-out: IP1 accumulation pEC50 ± S.E.M. (converted)): 3.55 nM
- EC50 (NMUR1 WT; wild-type (WT) NMUR1, Supplementary Fig. 1, three independent experiments, read-out: pEC50 of NMU (converted)): 4.47 nM
- EC50 (NMUR2 K122A): 61.7 nM
- EC50 (NMUR2 W297A): 66.1 nM
- EC50 (NMUR1 H331A): 11.5 nM
- EC50 (NMUR1 F345A): 1480 nM
- EC50 (NMUR2 E105A): 11.7 nM
- EC50 (NMUR1 F313A): 209 nM
- EC50 (NMUR2 F284A): 7.08 nM
- EC50 (NMUR2 D287A): 1.15 nM
- EC50 (NMUR2 N306A): 10 nM
- EC50 (NMUR2 Y52A): 1 nM
- EC50 (NMUR1 F141A): 115 nM
- EC50 (NMUR1 E142A): 47.9 nM
- EC50 (NMUR1 E117A): 1070 nM
- EC50 (NMUR1 L59A): 110 nM
- EC50 (NMUR2 F126A): 2 nM
Substance: FRVDEEFQSPFASQSRGYFLFRPRN-NH2 [NMU, neuromedin U]

— article PMC9019041, “Structural insights into the peptide selectivity and activation of human neuromedin U receptors” (Nature Communications, 2022)
